Laboratory results: the supplement of paper PMC6045584
± gives the standard deviation of the averaged measurements.

Compound: C=CCNC1=C2C[C@@H](C)C[C@H](OC)[C@H](O)[C@@H](C)/C=C(\C)[C@H](OC(N)=O)[C@@H](OC)/C=C\C=C(/C)C(=O)NC(=CC1=O)C2=O [17-AAG]
Test: surviving fraction relative to DMSO-only wells; higher = less growth inhibition
Conditions: exposure time: 5 days
Outline: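 Inhibitors at 0.5, 1, 5, 10, 50, 100, 500 and 1000 nM were applied continuously for five days to tumour cell lines seeded in log phase at 250–500 cells per well in 384-well plates 24 hours earlier. Viability was measured by CellTiter-Glo luminescence and expressed as surviving fraction relative to the median of DMSO-only wells. Luminescence was taken after 10 minutes at room temperature.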

Row | Test System | surviving fraction (0.5 nM) | surviving fraction (1 nM) | surviving fraction (5 nM) | surviving fraction (10 nM) | surviving fraction (50 nM) | surviving fraction (100 nM) | surviving fraction (500 nM) | surviving fraction (1000 nM)
1 | HCC78 LUNG | 0.814 ± 0.2 | 0.832 ± 0.067 | 0.961 ± 0.12 | 0.511 ± 0.097 | 0.0943 ± 0.0025 | 0.086 ± 0.011 | 0.053 ± 0.013 | 0.0667 ± 0.0021
2 | MFM223 BREAST | 0.757 ± 0.067 | 0.749 ± 0.036 | 0.503 ± 0.049 | 0.33 ± 0.022 | 0.119 ± 0.0098 | 0.0942 ± 0.006 | 0.08 ± 0.0044 | 0.095 ± 0.006
3 | HCC202 BREAST | 0.965 ± 0.13 | 0.988 ± 0.31 | 0.715 ± 0.081 | 0.537 ± 0.17 | 0.264 ± 0.053 | 0.177 ± 0.021 | 0.171 ± 0.038 | 0.161 ± 0.027
4 | HCC1395 BREAST | 0.823 ± 0.02 | 0.862 ± 0.035 | 0.957 ± 0.12 | 0.93 ± 0.067 | 1.21 ± 0.12 | 1.13 ± 0.18 | 0.899 ± 0.15 | 0.803 ± 0.1
5 | BT20 BREAST | 0.804 ± 0.1 | 0.793 ± 0.054 | 0.504 ± 0.08 | 0.308 ± 0.034 | 0.303 ± 0.061 | 0.282 ± 0.091 | 0.261 ± 0.068 | 0.278 ± 0.047
6 | U2OS BONE | 0.943 ± 0.049 | 0.9303 ± 0.0058 | 0.991 ± 0.018 | 0.886 ± 0.05 | 0.627 ± 0.0092 | 0.143 ± 0.004 | 0.0713 ± 0.0021 | 0.0763 ± 0.0032
7 | SG31 HEADNECK | 0.87 ± 0.024 | 0.911 ± 0.052 | 0.874 ± 0.15 | 0.753 ± 0.14 | 0.642 ± 0.064 | 0.302 ± 0.034 | 0.047 ± 0.0092 | 0.0317 ± 0.0029
8 | OS25HAL BONE | 0.9 ± 0.024 | 0.897 ± 0.041 | 0.909 ± 0.05 | 0.894 ± 0.05 | 0.948 ± 0.015 | 0.762 ± 0.13 | 0.146 ± 0.0098 | 0.141 ± 0.0098
9 | SCC36 HEADNECK | 0.696 ± 0.065 | 0.767 ± 0.036 | 0.772 ± 0.089 | 0.744 ± 0.093 | 0.518 ± 0.059 | 0.257 ± 0.012 | 0.039 ± 0.0027 | 0.038 ± 0.0044
10 | SUM44 BREAST | 0.897 ± 0.02 | 0.863 ± 0.051 | 0.759 ± 0.026 | 0.522 ± 0.026 | 0.539 ± 0.021 | 0.494 ± 0.014 | 0.456 ± 0.017 | 0.464 ± 0.012
11 | SG32 HEADNECK | 0.955 ± 0.12 | 0.834 ± 0.19 | 0.875 ± 0.16 | 0.881 ± 0.14 | 0.528 ± 0.097 | 0.259 ± 0.042 | 0.0457 ± 0.0023 | 0.034 ± 0.0044
12 | SUM159 BREAST | 1.02 ± 0.087 | 0.998 ± 0.046 | 0.993 ± 0.062 | 0.946 ± 0.044 | 0.0997 ± 0.0055 | 0.0537 ± 0.0086 | 0.053 ± 0.0046 | 0.0527 ± 0.01
13 | HCC1806 BREAST | 0.78 ± 0.076 | 0.783 ± 0.065 | 0.571 ± 0.12 | 0.123 ± 0.056 | 0.0273 ± 0.0015 | 0.0247 ± 0.0015 | 0.023 ± 0.001 | 0.0243 ± 0.0015
14 | NY BONE | 0.9133 ± 0.0047 | 0.924 ± 0.024 | 0.975 ± 0.0089 | 0.771 ± 0.054 | 0.0967 ± 0.0049 | 0.11 ± 0.0063 | 0.068 ± 0.0046 | 0.0527 ± 0.0045
15 | RDES SOFT TISSUE | 0.776 ± 0.22 | 0.784 ± 0.055 | 0.674 ± 0.081 | 0.692 ± 0.18 | 0.745 ± 0.11 | 0.992 ± 0.26 | 0.335 ± 0.042 | 0.16 ± 0.0035
